Tests used:
[1] = molecular target: Sodium channel protein type 9 subunit alpha (Homo sapiens) (UniProt Q15858); experiment: Inhibition of Nav1.7 (unknown origin) expressed in HEK293 cells by automated patch clamp assay; assay type: cell-based
[2] = molecular target: Sodium channel protein type 11 subunit alpha (Homo sapiens) (UniProt Q9UI33); experiment: Inhibition of Nav1.9 (unknown origin) expressed in HEK293 cells by automated patch clamp assay; assay type: cell-based
Sequence of Sodium channel protein type 11 subunit alpha (Homo sapiens) (Q9UI33 whole entry): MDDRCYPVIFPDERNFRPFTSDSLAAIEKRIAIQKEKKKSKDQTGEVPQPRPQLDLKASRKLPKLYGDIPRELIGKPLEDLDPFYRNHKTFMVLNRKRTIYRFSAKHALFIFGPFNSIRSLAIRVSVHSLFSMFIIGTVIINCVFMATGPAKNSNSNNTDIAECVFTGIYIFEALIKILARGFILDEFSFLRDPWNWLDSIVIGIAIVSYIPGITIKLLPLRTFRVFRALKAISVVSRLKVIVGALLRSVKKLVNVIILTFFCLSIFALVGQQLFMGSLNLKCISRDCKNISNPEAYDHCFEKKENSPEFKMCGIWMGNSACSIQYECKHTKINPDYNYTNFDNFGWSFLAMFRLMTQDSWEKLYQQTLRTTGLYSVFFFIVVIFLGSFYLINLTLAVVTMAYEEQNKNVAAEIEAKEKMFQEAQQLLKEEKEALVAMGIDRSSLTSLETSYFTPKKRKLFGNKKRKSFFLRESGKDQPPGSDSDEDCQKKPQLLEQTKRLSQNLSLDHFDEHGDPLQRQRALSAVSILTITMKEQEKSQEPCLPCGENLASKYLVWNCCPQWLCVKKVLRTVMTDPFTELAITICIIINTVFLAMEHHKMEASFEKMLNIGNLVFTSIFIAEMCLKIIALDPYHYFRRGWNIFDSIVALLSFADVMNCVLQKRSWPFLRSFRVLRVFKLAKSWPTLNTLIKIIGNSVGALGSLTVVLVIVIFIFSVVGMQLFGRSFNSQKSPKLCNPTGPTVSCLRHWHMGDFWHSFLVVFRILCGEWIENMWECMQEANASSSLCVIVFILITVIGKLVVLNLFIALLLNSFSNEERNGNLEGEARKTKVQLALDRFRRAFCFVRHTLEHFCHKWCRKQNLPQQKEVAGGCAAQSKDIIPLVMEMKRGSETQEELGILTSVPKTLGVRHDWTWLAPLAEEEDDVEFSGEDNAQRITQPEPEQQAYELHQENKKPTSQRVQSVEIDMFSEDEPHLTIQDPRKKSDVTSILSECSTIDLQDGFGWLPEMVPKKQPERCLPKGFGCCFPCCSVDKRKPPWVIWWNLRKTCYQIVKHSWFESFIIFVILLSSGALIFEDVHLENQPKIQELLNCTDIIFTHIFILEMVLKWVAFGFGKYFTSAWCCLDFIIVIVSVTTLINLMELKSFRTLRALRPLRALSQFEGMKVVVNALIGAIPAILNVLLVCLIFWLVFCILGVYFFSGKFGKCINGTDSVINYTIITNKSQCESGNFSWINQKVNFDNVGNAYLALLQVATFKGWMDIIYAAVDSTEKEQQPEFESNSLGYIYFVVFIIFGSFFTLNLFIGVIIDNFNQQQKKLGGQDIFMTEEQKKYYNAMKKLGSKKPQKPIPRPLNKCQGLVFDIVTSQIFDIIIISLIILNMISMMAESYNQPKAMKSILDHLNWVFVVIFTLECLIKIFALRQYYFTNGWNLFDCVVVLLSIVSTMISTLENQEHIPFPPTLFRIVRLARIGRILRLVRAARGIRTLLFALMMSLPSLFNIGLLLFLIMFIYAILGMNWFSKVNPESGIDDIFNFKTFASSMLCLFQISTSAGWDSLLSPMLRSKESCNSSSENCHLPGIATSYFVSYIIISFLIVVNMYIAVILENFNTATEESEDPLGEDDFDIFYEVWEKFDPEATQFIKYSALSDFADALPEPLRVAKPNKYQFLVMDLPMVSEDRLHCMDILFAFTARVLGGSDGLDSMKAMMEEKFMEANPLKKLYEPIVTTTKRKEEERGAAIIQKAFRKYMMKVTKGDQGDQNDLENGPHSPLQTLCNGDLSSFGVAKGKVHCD

Sequence of Sodium channel protein type 9 subunit alpha (Homo sapiens) (Q15858 whole entry, looked up): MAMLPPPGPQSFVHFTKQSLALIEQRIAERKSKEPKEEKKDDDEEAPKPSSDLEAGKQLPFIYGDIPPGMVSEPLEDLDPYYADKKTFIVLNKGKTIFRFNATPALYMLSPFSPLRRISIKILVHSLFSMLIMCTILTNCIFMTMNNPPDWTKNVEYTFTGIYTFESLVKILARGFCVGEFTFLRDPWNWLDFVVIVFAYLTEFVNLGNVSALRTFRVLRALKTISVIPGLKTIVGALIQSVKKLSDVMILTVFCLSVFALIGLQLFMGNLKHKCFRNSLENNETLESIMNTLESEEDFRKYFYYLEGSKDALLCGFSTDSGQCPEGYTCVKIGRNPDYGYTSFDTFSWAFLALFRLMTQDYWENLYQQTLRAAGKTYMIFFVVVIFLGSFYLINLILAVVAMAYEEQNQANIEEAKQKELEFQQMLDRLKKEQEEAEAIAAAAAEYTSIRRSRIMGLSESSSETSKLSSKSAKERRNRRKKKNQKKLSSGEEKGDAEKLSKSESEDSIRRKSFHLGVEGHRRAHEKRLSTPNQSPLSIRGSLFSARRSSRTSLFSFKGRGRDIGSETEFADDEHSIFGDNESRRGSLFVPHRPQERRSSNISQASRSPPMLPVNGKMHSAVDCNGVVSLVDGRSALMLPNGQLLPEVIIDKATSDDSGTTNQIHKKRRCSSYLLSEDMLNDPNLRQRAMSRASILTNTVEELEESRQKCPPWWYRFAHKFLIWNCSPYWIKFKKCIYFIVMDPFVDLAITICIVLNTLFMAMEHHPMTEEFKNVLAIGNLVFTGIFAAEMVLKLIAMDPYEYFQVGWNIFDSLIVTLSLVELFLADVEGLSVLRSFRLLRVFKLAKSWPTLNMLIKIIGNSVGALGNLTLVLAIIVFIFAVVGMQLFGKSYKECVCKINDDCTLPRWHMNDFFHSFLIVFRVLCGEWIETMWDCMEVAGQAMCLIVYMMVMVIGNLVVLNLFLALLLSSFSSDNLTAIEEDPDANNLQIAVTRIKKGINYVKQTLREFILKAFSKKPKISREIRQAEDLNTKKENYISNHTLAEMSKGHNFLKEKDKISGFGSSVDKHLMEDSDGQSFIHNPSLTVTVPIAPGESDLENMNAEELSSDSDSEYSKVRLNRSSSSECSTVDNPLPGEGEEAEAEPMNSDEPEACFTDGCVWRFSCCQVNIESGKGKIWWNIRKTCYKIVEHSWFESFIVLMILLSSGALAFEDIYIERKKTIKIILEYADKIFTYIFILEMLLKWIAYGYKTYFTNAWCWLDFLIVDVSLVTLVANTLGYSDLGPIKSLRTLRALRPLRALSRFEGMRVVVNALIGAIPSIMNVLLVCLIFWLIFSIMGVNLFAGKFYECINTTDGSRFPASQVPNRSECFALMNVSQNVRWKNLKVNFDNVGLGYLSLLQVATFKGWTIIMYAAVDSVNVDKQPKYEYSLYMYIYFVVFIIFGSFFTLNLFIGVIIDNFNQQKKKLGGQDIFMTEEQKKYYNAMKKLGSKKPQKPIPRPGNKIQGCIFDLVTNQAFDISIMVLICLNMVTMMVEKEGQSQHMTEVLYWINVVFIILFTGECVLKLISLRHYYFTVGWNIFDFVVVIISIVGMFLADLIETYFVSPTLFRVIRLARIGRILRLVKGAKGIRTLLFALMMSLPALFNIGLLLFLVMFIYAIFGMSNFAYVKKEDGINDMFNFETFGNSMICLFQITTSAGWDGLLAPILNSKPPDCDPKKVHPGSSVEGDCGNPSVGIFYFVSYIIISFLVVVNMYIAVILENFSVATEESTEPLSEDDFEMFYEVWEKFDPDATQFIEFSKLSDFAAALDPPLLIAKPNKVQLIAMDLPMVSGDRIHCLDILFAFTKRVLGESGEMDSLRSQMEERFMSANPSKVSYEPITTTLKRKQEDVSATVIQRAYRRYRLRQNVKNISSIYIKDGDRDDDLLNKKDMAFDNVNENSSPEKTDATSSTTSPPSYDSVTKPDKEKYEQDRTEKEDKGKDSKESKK

| SMILES | INH [1] | INH [2] |
| --- | --- | --- |
| Cn1cc(-c2ccc(C(F)(F)F)cc2-c2ccncc2)c2ccc(S(=O)(=O)Nc3ncns3)cc21 | 0.05 µM | > 10 µM |
| Cn1cc(-c2ccc(C(F)(F)F)cc2C2=CCNCC2)c2ccc(S(=O)(=O)Nc3ncns3)cc21 | 0.0425 µM | > 10 µM |
| Cn1cc(-c2cccc3c2CCNC3)c2ccc(S(=O)(=O)Nc3ncns3)cc21 | 0.292 µM | > 10 µM |
| Cn1nccc1-c1cc(Cl)ccc1-c1cn(C)c2cc(S(=O)(=O)Nc3ncns3)ccc12 | 0.253 µM | > 10 µM |
| Cn1cc(-c2ccc(C(F)(F)F)cc2-c2ccnn2C2CNC2)c2ccc(S(=O)(=O)Nc3ncns3)cc21 | 0.263 µM | > 10 µM |
| Cn1cc(-c2cccc3ccccc23)c2ccc(S(=O)(=O)Nc3ncns3)cc21 | 0.306 µM | > 10 µM |
| Cn1nccc1-c1cc(C(F)(F)F)ccc1-c1cn(C)c2cc(S(=O)(=O)Nc3ncns3)ccc12 | 0.147 µM | > 10 µM |
| CC(=O)n1cc(-c2ccc(C(F)(F)F)cc2-c2ccnn2C)c2ccc(S(=O)(=O)Nc3ncns3)cc21 | 0.0505 µM | > 10 µM |
| Cn1cc(-c2ccc(C(F)(F)F)cc2-c2ccn[nH]2)c2ccc(S(=O)(=O)Nc3ncns3)cc21 | 0.0375 µM | > 10 µM |

From ChEMBL document CHEMBL2406968, “Heteroaryl sodium channel inhibitors” (ACS Med Chem Lett, 2013)
